Measurements from patent US20230264009A1, “DISINFECTING CAP KIT FOR LUER ACCESS DEVICES” (SterileCare Inc., priority 2022, published 2023).

Assays:
[1] = test system: Pseudomonas aeruginosa SK1 biofilm; assay: FBEC index, checkerboard dilution on biofilms; type: cell-based; conditions: P. aeruginosa SK1 biofilm
Procedure: (§4) In step (4), microtiter plates are incubated at 37° C. for 24 h. then (6), after incubation, the bacterial and fungal cells were dislodged from the pegs into the recovery medium described above.
(§5) Three 10-µL aliquots, for a total of 30 µL from each well of recovery medium, were spotted on MH agar plates and incubated for 24 h at 37° C. […] The FBEC determination is a modification of the FICI.

[2] = test system: S. epidermidis SK9; assay: MIC, micro broth dilution; type: cell-based, Staphylococcus epidermidis; conditions: alone, 24 h
Procedure: (§1) An assay was made using a minimum inhibitory concentration (MIC) and minimum bactericidal concentration (MBC) and minimum fungicidal concentration (MFC) determination. The MIC was determined by the micro broth dilution method in 96-well plates. Serial two-fold dilutions of tetrasodium EDTA (from 2% to 0.015%), ethanol (from 50% to 0.1%) and chlorhexidine HCl (from 100 µg/mL to 0.025 µg/mL) were prepared in MH broth with a final volume of 90 µL per well. A 10 µL containing 1 × 10^5 bacterial cells or 2 × 10^3 fungal cells were added to each well. The inoculated plates were covered with a lid, sealed with Parafilm, and incubated for 24 h at 37° C. with slight rocking on a tilting platform shaker. After incubation, the optical density at 600 nm (OD 600 ) of the cultures in each well was measured using an xMark™ Microplate Absorbance Spectrophotometer (Bio-Rad). […] MBCs and MFCs were determined by transferring 100 µL from each well with no apparent growth onto appropriate agar plates, followed by incubation for 24 h at 37° C.

[3] = test system: Proteus mirabilis ON153 biofilm; assay: FBEC index, checkerboard dilution on biofilms; type: cell-based; conditions: P. mirabilis ON153 biofilm
Procedure: as §4, §5

[4] = test system: Escherichia coli SK2 biofilm; assay: MBEC Assay, 48-h biofilm, 24 h exposure; type: cell-based; conditions: E. coli SK2
Procedure: (§2) A biofilm cultivation cell composition was provided. This fifth composition was created using an MBEC Assay® biofilm inoculator, consisting of a polystyrene lid with 96 downward-protruding pegs and a corresponding base used to grow biofilms. A standardized inoculum was diluted in an appropriate biofilm growth medium to achieve a viable cell count of 1.5 × 10^6 CFU/mL of bacterial cells or […] CFU/mL of fungal cells. Then, 150 µL of this inoculum was transferred into each appropriate well, and the peg lids were inserted into the microtiter plates. The plates were sealed with Parafilm and were incubated at optimum temperature for 48 h with slight rocking for bacteria and shaking at 200 rpm for fungal strains. After incubation, the peg lid was removed from the base and rinsed twice with sterile phosphate-buffered saline (PBS) for 2 min to remove loosely attached non-sessile cells. Before the antimicrobial challenge, the pegs in column 1 (n = 8) were considered the biofilm growth control; these pegs were removed from the lids, placed into 200 µL of recovery medium, and analyzed for starting biofilm cell numbers as described below. The rinsed pegs were placed into new 96-well plates containing two-fold dilutions of antimicrobials such as tetrasodium EDTA (4 %-0.0125%), ethanol (100%-0.2%), and chlorhexidine HCl (100 µg/mL-0.4 µg/mL) in 200 µL of suitable biofilm growth medium per well and incubated at optimum temperature for 24 h. After the antimicrobial challenge, the pegs were rinsed twice with sterile PBS for 2 min and placed into a new 96-well plate containing 200 µL of recovery medium. The recovery plates were sealed with Parafilm, and biofilm cells were dislodged from the pegs by sonication for 30 min with a Branson 3510 bath sonicator. The biofilm cells in the recovery medium were serially diluted, and a drop dilution assay was performed to enumerate the viable cells. MBEC values were determined as the minimum concentration of antimicrobials that yielded a viable cell count at or lower than the 125 CFU/mL detection limit.

[5] = test system: Candida albicans SK4b biofilm; assay: MBEC Assay, 48-h biofilm, 24 h exposure; type: cell-based; conditions: C. albicans SK4b
Procedure: as §2

[6] = test system: Staphylococcus aureus ON89 biofilm; assay: MBEC Assay, 48-h biofilm, 24 h exposure; type: cell-based; conditions: S. aureus ON89
Procedure: as §2

[7] = test system: Staphylococcus epidermidis SK9 biofilm; assay: MBEC Assay, 48-h biofilm, 24 h exposure; type: cell-based; conditions: S. epidermidis SK9
Procedure: as §2

[8] = test system: Proteus mirabilis ON153 biofilm; assay: MBEC Assay, 48-h biofilm, 24 h exposure; type: cell-based; conditions: P. mirabilis ON153
Procedure: as §2

[9] = test system: Pseudomonas aeruginosa SK1 biofilm; assay: MBEC Assay, 48-h biofilm, 24 h exposure; type: cell-based; conditions: P. aeruginosa SK1
Procedure: as §2

[10] = test system: MRSA ON184; assay: MIC, micro broth dilution; type: cell-based, Staphylococcus aureus; conditions: alone, 24 h
Procedure: as §1

[11] = test system: Escherichia coli SK2 biofilm; assay: FBEC index, checkerboard dilution on biofilms; type: cell-based; conditions: E. coli SK2 biofilm
Procedure: as §4, §5

[12] = test system: C. albicans ON47 biofilm; assay: MBEC Assay, 48-h biofilm, 24 h exposure; type: cell-based, Candida albicans
Procedure: A biofilm cultivation cell composition was provided. This fifth composition was created using an MBEC Assay® biofilm inoculator, consisting of a polystyrene lid with 96 downward-protruding pegs and a corresponding base used to grow biofilms. A standardized inoculum was diluted in an appropriate biofilm growth medium to achieve a viable cell count of 1.5 × 10^6 CFU/mL of bacterial cells or […] CFU/mL of fungal cells. Then, 150 µL of this inoculum was transferred into each appropriate well, and the peg lids were inserted into the microtiter plates. The plates were sealed with Parafilm and were incubated at optimum temperature for 48 h with slight rocking for bacteria and shaking at 200 rpm for fungal strains. After incubation, the peg lid was removed from the base and rinsed twice with sterile phosphate-buffered saline (PBS) for 2 min to remove loosely attached non-sessile cells. Before the antimicrobial challenge, the pegs in column 1 (n = 8) were considered the biofilm growth control; these pegs were removed from the lids, placed into 200 µL of recovery medium, and analyzed for starting biofilm cell numbers as described below. […] MBEC values were determined as the minimum concentration of antimicrobials that yielded a viable cell count at or lower than the 125 CFU/mL detection limit.

[13] = test system: MRSA ON184; assay: Checkerboard titration, FICI; type: cell-based, Staphylococcus aureus
Procedure: (§3) A fourth composition and solution included tetrasodium EDTA with ethanol or chlorhexidine HCl. This fourth composition and solution were created using checkerboard titration methods using micro broth dilution in 96-well microtiter plates. The concentrations of antimicrobials used were based on previously determined MIC values. Briefly, 200 µL of two-fold dilutions of tetrasodium EDTA and ethanol or chlorhexidine HCl were prepared in MH or MH II broth with standardized cell suspension. […] Microtiter plates were incubated at 37° C. for 24 h, and the results were analyzed. Each test was performed in duplicate and included a growth control without adding any antimicrobials.

[14] = test system: MRSA ON184; assay: Checkerboard titration, FMCI; type: cell-based, Staphylococcus aureus
Procedure: as §1, §3

[15] = test system: E. coli SK2; assay: Checkerboard titration, FMCI; type: cell-based, Escherichia coli
Procedure: as §1, §3

[16] = test system: C. albicans ON47 biofilm; assay: FBEC index, checkerboard dilution on biofilms; type: cell-based, Candida albicans
Procedure: as §4, §5

[17] = test system: S. epidermidis SK9; assay: Checkerboard titration, FMCI; type: cell-based, Staphylococcus epidermidis
Procedure: as §1, §3

[18] = tetrasodium EDTA + chlorhexidine HCl

O=C([O-])CN(CCN(CC(=O)[O-])CC(=O)[O-])CC(=O)[O-].[Na+].[Na+].[Na+].[Na+] [EDTA, tetrasodium EDTA]
FBEC (concentration in combination) [1, 18]: 0.25 % w/v
FBEC (concentration in combination) ([1]; tetrasodium EDTA + ethanol): 0.125 % w/v
MIC [2]: 0.063 % w/v
FBEC (concentration in combination) [3, 18]: 0.125 % w/v
FBEC (concentration in combination) ([3]; tetrasodium EDTA + ethanol): 0.125 % w/v
MBEC [4]: 2 % w/v
MBEC [5]: 1 % w/v
MBEC [6]: 4 % w/v
MBEC [7]: 2 % w/v
MBEC [8]: 4 % w/v
MBEC [9]: 4 % w/v
MIC [10]: 0.063 % w/v
FBEC (concentration in combination) [11, 18]: 0.031 % w/v
FBEC (concentration in combination) ([11]; tetrasodium EDTA + ethanol): 0.125 % w/v
MBEC [12]: 1 % w/v
Concentration in combination giving FICI [13, 18]: 0.008 % w/v
Concentration in combination giving FICI ([13]; tetrasodium EDTA + ethanol): 0.015 % w/v
Concentration in combination giving FMCI [14, 18]: 0.125 % w/v
Concentration in combination giving FMCI ([14]; tetrasodium EDTA + ethanol): 0.031 % w/v
Concentration in combination giving FMCI [15, 18]: 0.015 % w/v
Concentration in combination giving FMCI ([15]; tetrasodium EDTA + ethanol): 0.25 % w/v
FBEC (concentration in combination) [16, 18]: 0.031 % w/v
FBEC (concentration in combination) ([16]; tetrasodium EDTA + ethanol): 0.125 % w/v
Concentration in combination giving FMCI [17, 18]: 0.008 % w/v
Concentration in combination giving FMCI ([17]; tetrasodium EDTA + ethanol): 0.031 % w/v
